In brackets after ≈: the same amount, converted by molar mass.
Tests used:
KYSE-520 cell line = test: Antiproliferative activity against EGFR-amplified human KYSE-520 cells assessed as inhibition of cell proliferation incubated for 72 hrs by CellTiter-Glo reagent based luminescence assay; type: functional; conditions: KYSE-520, 72 h
[1] = biological target: T1, Tyrosine-protein phosphatase non-receptor type 11 (Homo sapiens, UniProt Q06124); test: Allosteric inhibition of SHP2 in human KYSE-520 cells assessed as inhibition of ERK phosphorylation incubated for 2 hrs by TR-FRET assay; type: cell-based, KYSE-520 cell line
T1 sequence (Q06124 whole entry): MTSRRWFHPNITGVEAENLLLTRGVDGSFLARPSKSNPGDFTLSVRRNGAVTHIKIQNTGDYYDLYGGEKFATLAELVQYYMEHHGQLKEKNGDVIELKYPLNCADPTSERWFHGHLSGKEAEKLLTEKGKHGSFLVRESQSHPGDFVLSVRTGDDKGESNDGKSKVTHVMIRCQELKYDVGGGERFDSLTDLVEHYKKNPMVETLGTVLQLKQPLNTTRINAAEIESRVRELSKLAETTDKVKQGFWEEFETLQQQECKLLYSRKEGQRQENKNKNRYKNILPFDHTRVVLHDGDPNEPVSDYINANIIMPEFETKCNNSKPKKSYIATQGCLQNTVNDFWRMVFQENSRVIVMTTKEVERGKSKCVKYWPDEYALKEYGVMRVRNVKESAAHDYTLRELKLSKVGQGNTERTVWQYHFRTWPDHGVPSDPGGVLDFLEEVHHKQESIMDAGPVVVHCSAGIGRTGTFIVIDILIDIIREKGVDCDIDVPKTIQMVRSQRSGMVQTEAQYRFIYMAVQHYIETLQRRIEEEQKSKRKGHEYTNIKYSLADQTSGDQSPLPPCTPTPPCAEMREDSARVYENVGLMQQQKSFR

[2] = biological target: T1, Tyrosine-protein phosphatase non-receptor type 11; test: Allosteric inhibition of IRS1 peptide-activated human recombinant SHP2 (Met1 to Leu525) expressed in Escherichia coli assessed as inhibition of dephosphorylation of 6,8-difluoro-4-methylumbelliferyl phosphate using DiFMUP as substrate preincubated with enzyme for 30 mins followed by substrate addition and measured after 30 mins by DiFMUP assay
[3] = biological target: Voltage-gated inwardly rectifying potassium channel KCNH2 (Homo sapiens, UniProt Q12809); test: Displacement of E-4031 from hERG by fluorescence polarization assay; type: toxicity
Sequence of Voltage-gated inwardly rectifying potassium channel KCNH2 (Q12809 whole entry): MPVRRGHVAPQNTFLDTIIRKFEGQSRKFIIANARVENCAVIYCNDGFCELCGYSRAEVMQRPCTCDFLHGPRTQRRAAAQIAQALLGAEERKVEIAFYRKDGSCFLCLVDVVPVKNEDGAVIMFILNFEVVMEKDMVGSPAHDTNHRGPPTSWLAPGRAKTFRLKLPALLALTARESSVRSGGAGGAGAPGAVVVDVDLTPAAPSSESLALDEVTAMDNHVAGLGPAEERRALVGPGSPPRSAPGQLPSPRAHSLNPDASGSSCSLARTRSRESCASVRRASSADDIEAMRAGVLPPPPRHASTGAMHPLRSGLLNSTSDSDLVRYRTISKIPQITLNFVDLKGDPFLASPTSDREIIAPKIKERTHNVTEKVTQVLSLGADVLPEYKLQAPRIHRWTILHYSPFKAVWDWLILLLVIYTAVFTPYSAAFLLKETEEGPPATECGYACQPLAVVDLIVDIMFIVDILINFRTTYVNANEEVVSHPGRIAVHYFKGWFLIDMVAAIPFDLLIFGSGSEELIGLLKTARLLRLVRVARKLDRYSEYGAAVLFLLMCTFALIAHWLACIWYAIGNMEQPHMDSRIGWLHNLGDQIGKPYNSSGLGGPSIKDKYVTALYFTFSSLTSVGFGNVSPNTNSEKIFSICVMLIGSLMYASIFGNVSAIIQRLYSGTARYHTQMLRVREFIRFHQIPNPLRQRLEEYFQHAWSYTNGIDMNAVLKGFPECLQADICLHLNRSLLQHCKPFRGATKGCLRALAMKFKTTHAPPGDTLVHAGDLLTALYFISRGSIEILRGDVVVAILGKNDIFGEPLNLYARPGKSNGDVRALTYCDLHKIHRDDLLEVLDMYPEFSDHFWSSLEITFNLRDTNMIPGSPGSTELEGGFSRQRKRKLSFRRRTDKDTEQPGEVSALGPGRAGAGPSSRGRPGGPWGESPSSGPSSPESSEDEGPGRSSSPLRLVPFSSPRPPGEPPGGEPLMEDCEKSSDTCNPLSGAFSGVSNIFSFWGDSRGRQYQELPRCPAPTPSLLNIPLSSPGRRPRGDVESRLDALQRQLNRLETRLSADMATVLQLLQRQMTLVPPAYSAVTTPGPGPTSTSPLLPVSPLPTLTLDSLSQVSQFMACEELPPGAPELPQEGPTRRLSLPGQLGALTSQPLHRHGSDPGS

[4] = Half life in BALB/c mouse at 1 mg/kg, iv measured for 24 hrs by LC-MS/MS analysis; type: ADME, organism-based; conditions: in vivo
[5] = Intrinsic clearance in Sprague-Dawley rat at 0.5 mg/kg, iv measured for 24 hrs by LC-MS/MS analysis; type: ADME, organism-based; conditions: in vivo
[6] = Intrinsic clearance in BALB/c mouse at 1 mg/kg, iv measured for 24 hrs by LC-MS/MS analysis; type: ADME, organism-based; conditions: in vivo
[7] = Apparent passive permeability of the compound in phosphate buffer saline at pH 7.4 at 5 uM incubated for 4 hrs by PAMPA assay; type: ADME
[8] = Volume of distribution at steady state in Sprague-Dawley rat at 0.5 mg/kg, iv measured for 24 hrs by LC-MS/MS analysis; type: ADME, organism-based; conditions: in vivo, read-out: Vdss
[9] = Volume of distribution at steady state in BALB/c mouse at 1 mg/kg, iv measured for 24 hrs by LC-MS/MS analysis; type: ADME, organism-based; conditions: in vivo, read-out: Vdss
[10] = Oral bioavailability in BALB/c mouse at 50 mg/kg measured for 24 hrs by LC-MS/MS analysis; type: ADME, organism-based; conditions: in vivo
[11] = Half life in Sprague-Dawley rat at 0.5 mg/kg, iv measured for 24 hrs by LC-MS/MS analysis; type: ADME, organism-based; conditions: in vivo
[12] = Drug metabolism in human liver microsomes assessed as oxidised metabolite formation at 1 uM measured after 60 mins in presence of NADPH by MetID study analysis; type: ADME, Microsome; conditions: 1 h
[13] = Drug metabolism in human liver microsomes assessed as 1'-(6-((2-(trifluoromethyl)pyridin-3-yl)sulfonyl)-1H-imidazo[4,5-b]pyrazin-2-yl)-1,3-dihydrospiro[indene-2,4'-piperidin]-1-amine formation at 1 uM measured after 60 mins in presence of NADPH by MetID study analysis; type: ADME, Microsome
[14] = Drug metabolism in C57BL/6 mouse liver microsomes assessed as 1'-(6-((2-(trifluoromethyl)pyridin-3-yl)sulfonyl)-1H-imidazo[4,5-b]pyrazin-2-yl)-1,3-dihydrospiro[indene-2,4'-piperidin]-1-amine formation at 1 uM measured after 60 mins in presence of NADPH by MetID study analysis; type: ADME, Microsome
[15] = biological target: T1, Tyrosine-protein phosphatase non-receptor type 11; test: Binding affinity to N-terminal biotinylated AviTag-G4SG4S-tagged recombinant SHP2 (1 to 525 residues) (unknown origin) by SPR analysis
[16] = Drug metabolism in C57BL/6 mouse liver microsomes assessed as oxidised metabolite formation at 1 uM measured after 60 mins in presence of NADPH by MetID study analysis; type: ADME, Microsome; conditions: 1 h
[17] = Intrinsic clearance in human liver microsomes at 1 uM measured for 60 mins in presence of NADPH by LC-MS/MS analysis; type: ADME, Microsome; conditions: read-out: CLH
[18] = Kinetic solubility of the compound in phosphate buffer saline at pH 7.4 at 200 uM by LC-UV analysis; type: physicochemical; conditions: read-out: Kinetic_solubility
[19] = Intrinsic clearance in C57BL/6 mouse liver microsomes at 1 uM measured for 60 mins in presence of NADPH by LC-MS/MS analysis; type: ADME, Microsome; conditions: read-out: CLH

N[C@@H]1c2ccccc2CC12CCN(c1nc3nc(Sc4ccncc4Cl)cnc3[nH]1)CC2
EC50 (KYSE-520 cell line): 325 nM
EC50 [1]: 51 nM
IC50 [2]: 3 nM
IC50 [3]: 3100 nM

CC1(N)CCN(c2nc3ncc(Sc4cccnc4C(F)(F)F)cc3[nH]2)CC1
IC50 [2]: > 33000 nM

Nc1nccc(Sc2cnc3[nH]c(N4CCC5(CC4)Cc4ccccc4[C@H]5N)nc3n2)c1Cl
EC50 (KYSE-520 cell line): 598 nM
EC50 [1]: 75 nM
IC50 [2]: 4 nM
IC50 [3]: 900 nM

CC1(N)CCN(c2nc3ncc(-c4cccc(Cl)c4Cl)nc3[nH]2)CC1
IC50 [2]: 797 nM

CC1(N)CCN(c2nc3nc(Sc4cccnc4C(F)(F)F)cnc3s2)CC1
IC50 [2]: 887 nM

NC1CCCN(c2nc3nc(Sc4cccnc4C(F)(F)F)cnc3[nH]2)C1 (stereo unspecified)
IC50 [2]: 435 nM

CNC1CCN(c2nc3nc(Sc4cccnc4C(F)(F)F)cnc3[nH]2)CC1
IC50 [2]: 1180 nM

CC1(N)CCN(c2nc3ccc(Sc4cccnc4C(F)(F)F)cc3[nH]2)CC1
IC50 [2]: > 16000 nM

NC1CCN(c2nc3nc(Sc4cccnc4C(F)(F)F)cnc3[nH]2)CC1
IC50 [2]: 664 nM

CC1(N)CCN(c2nc3ncc(Oc4cccc(Cl)c4Cl)nc3[nH]2)CC1
IC50 [2]: 521 nM

Cn1c(N2CCC(C)(N)CC2)nc2ncc(Sc3cccnc3C(F)(F)F)nc21
IC50 [2]: 1360 nM

Cc1nc2nc(N3CCC(C)(N)CC3)[nH]c2nc1Sc1cccc(Cl)c1Cl
IC50 [2]: 436 nM

CC1(N)CCN(c2cnc(Sc3cccnc3C(F)(F)F)c(N)n2)CC1
IC50 [2]: 142 nM

CC1(N)CCN(c2nc3ncc(Sc4cccnc4C(F)(F)F)nc3s2)CC1
IC50 [2]: > 64000 nM

CC1(N)CCN(c2nc3ncc(Sc4cccnc4C(F)(F)F)nc3[nH]2)CC1
EC50 [1]: 1760 nM
IC50 [2]: 74 nM

CNc1nccc(Sc2cnc3[nH]c(N4CCC5(CC4)Cc4ccccc4[C@H]5N)nc3n2)c1Cl
half-life [4]: > 4 h
CL [5]: 17 mL/min/kg
CL [6]: 14 mL/min/kg
Papp at 4 h, 5 µM [7]: 0.02 ×10⁻⁶ cm/s
EC50 (KYSE-520 cell line): 520 nM
Vd [8]: 1.9 L/kg
EC50 [1]: 37 nM
Vd [9]: 1.8 L/kg
bioavailability [10]: 7%
IC50 [2]: 6 nM
IC50 [3]: 4200 nM
half-life [11]: > 2.3 h

N[C@@H]1CCCC12CCN(c1nc3nc(Sc4cccnc4C(F)(F)F)cnc3[nH]1)CC2
IC50 [2]: 290 nM

CC1(N)CCN(c2nc3cnc(Sc4cccnc4C(F)(F)F)nc3[nH]2)CC1
IC50 [2]: 808 nM

CC1(N)CCN(c2nc3ncc(Sc4cccc(Cl)c4Cl)nc3[nH]2)CC1
IC50 [2]: 47 nM

N[C@@H]1c2ccccc2CC12CCN(c1nc3nc(Sc4cccnc4C(F)(F)F)cnc3[nH]1)CC2
Drug metabolism [12]: Metabolite_Detected
CL [5]: 24 mL/min/kg
Papp at 4 h, 5 µM [7]: 0.027 ×10⁻⁶ cm/s
EC50 (KYSE-520 cell line): 547 nM
Vd [8]: 0.4 L/kg
EC50 [1]: 42 nM
IC50 [2]: 5 nM
Drug metabolism [13]: Metabolite_Detected
Drug metabolism [14]: Metabolite_Detected
IC50 [3]: 1800 nM
Kd [15]: 0.6 nM
Drug metabolism [16]: Metabolite_Detected
CLint scaled at 1 µM [17]: 74 mL/min/kg
solubility kinetic at 200 µM [18]: 154 µM (≈ 76.6 µg/mL)
CLint scaled at 1 µM [19]: 297 mL/min/kg
half-life [11]: 0.4 h

Cn1c(N2CCC(C)(N)CC2)nc2nc(Sc3cccnc3C(F)(F)F)cnc21
IC50 [2]: 409 nM

C[C@@H]1OCC2(CCN(c3nc4nc(Sc5cccnc5C(F)(F)F)cnc4[nH]3)CC2)[C@@H]1N
EC50 [1]: 2850 nM
IC50 [2]: 64 nM

Reference: ChEMBL document CHEMBL5223191, “Discovery of a Novel Series of Imidazopyrazine Derivatives as Potent SHP2 Allosteric Inhibitors” (ACS Med Chem Lett, 2023)
